Results published in ChEMBL document CHEMBL4411303, “Synthesis of tetrazole derivatives bearing pyrrolidine scaffold and evaluation of their antifungal activity against Candida albicans” (Eur J Med Chem, 2019).
Converted amounts (≈) assume the structure as drawn. The source made the active and inactive calls. The rule behind the calls is not given here.

What was measured:
Candida albicans [1] = test: Antifungal activity against Candida albicans ATCC 90028 assessed as planktonic growth inhibition at 0.09 uM after 48 hrs by M27-A3 protocol based method relative to control; type: functional; conditions: ATCC 90028, 48 h, read-out: GI
Candida albicans [2] = test: Antifungal activity against Candida albicans ATCC 90028 assessed as planktonic growth inhibition at 0.18 uM after 48 hrs by M27-A3 protocol based method relative to control; type: functional; conditions: ATCC 90028, 48 h, read-out: GI
Candida albicans [3] = test: Antifungal activity against Candida albicans ATCC 90028 assessed as planktonic growth inhibition at 0.36 uM after 48 hrs by M27-A3 protocol based method relative to control; type: functional; conditions: ATCC 90028, 48 h, read-out: GI
Candida albicans [4] = test: Antifungal activity against Candida albicans ATCC 90028 assessed as planktonic growth inhibition at 0.72 uM after 48 hrs by M27-A3 protocol based method relative to control; type: functional; conditions: ATCC 90028, 48 h, read-out: GI
Candida albicans [5] = test: Antifungal activity against Candida albicans ATCC 90028 assessed as planktonic growth inhibition at 1.44 uM after 48 hrs by M27-A3 protocol based method relative to control; type: functional; conditions: ATCC 90028, 48 h, read-out: GI
Candida albicans [6] = test: Antifungal activity against Candida albicans ATCC 90028 assessed as planktonic growth inhibition at 2.88 uM after 48 hrs by M27-A3 protocol based method relative to control; type: functional; conditions: ATCC 90028, 48 h, read-out: GI
Candida albicans [7] = test: Antifungal activity against Candida albicans ATCC 90028 assessed as planktonic growth inhibition at 5.76 uM after 48 hrs by M27-A3 protocol based method relative to control; type: functional; conditions: ATCC 90028, 48 h, read-out: GI
Candida albicans [8] = test: Antifungal activity against Candida albicans ATCC 90028 assessed as planktonic growth inhibition at 11.51 uM after 48 hrs by M27-A3 protocol based method relative to control; type: functional; conditions: ATCC 90028, 48 h, read-out: GI
Candida albicans [9] = test: Antifungal activity against Candida albicans ATCC 90028 assessed as planktonic growth inhibition at 23.02 uM after 48 hrs by M27-A3 protocol based method relative to control; type: functional; conditions: ATCC 90028, 48 h, read-out: GI
Candida albicans [10] = test: Antifungal activity against Candida albicans ATCC 90028 assessed as planktonic growth inhibition at 46.05 uM after 48 hrs by M27-A3 protocol based method relative to control; type: functional; conditions: ATCC 90028, 48 h, read-out: GI
Candida albicans [11] = test: Fungicidal activity against Candida albicans ATCC 90028 assessed as log reduction in fungal load incubated for 48 hrs followed by replating on sabouraud dextrose agar plate and measured after 48 hrs; type: functional
[12] = Selectivity index, ratio of CC50 for African green monkey Vero cells to IC50 for Candida albicans ATCC 90028; type: toxicity; conditions: read-out: Ratio CC50/IC50
[13] = Toxicity in Galleria mellonella larvae assessed as survival rate at 46.05 uM measured after 18 hrs (reference value: 100%)
[14] = Toxicity in Galleria mellonella larvae assessed as survival rate at 46.05 uM measured after 48 hrs (reference value: 100%)
[15] = Toxicity in Galleria mellonella larvae assessed as survival rate at 46.05 uM measured after 120 hrs (reference value: 100%)
[16] = Toxicity in Galleria mellonella larvae assessed as movement melanization at 46.05 uM measured after 18 hrs (reference value: 0%)
[17] = Toxicity in Galleria mellonella larvae assessed as movement melanization at 46.05 uM measured after 48 hrs (reference value: 0%)
[18] = Toxicity in Galleria mellonella larvae assessed as movement melanization at 46.05 uM measured after 128 hrs (reference value: 0%)
[19] = Toxicity in Galleria mellonella larvae assessed as cocoon formation at 46.05 uM measured after 18 hrs (reference value: 60 +/- 20%)
[20] = Toxicity in Galleria mellonella larvae assessed as cocoon formation at 46.05 uM measured after 48 hrs (reference value: 85 +/- 5%)
[21] = Toxicity in Galleria mellonella larvae assessed as cocoon formation at 46.05 uM measured after 48 hrs (reference value: 100 +/- 0%)
Candida albicans [22] = test: Antibiofilm activity against Candida albicans ATCC 90028 assessed as inhibition of biofilm formation […] after 24 hrs by XTT assay relative to control; type: functional, organism-based; conditions: ATCC 90028, 24 h
Candida albicans [23] = test: Antifungal activity against Candida albicans ATCC 90028 assessed as reduction in cell growth after 48 to 72 hrs by M27-A3 protocol based method; type: functional
Candida albicans [24] = test: Antifungal activity against Candida albicans ATCC 90028 assessed as reduction in cell growth after 48 to 72 hrs in presence of ergosterol by M27-A3 protocol based method; type: functional
Candida albicans [25] = test: Inhibition of Candida albicans ATCC 90028 cell adhesion to human TR146 cells at reduction in cell adherence at 46.05 uM relative to control; type: functional; conditions: ATCC 90028, TR146
Candida albicans [26] = test: Induction of apoptosis in Candida albicans ATCC 90028 assessed as necrotic cells at 46.05 uM by Annexin V-FITC/propidium iodide staining based flow cytometry relative to control; type: functional
Candida albicans [27] = test: Selectivity index, ratio of CC50 for induction of necrosis in Candida albicans ATCC 90028 to MIC for Candida albicans ATCC 90028; type: functional
Candida albicans [28] = test: Induction of apoptosis in Candida albicans ATCC 90028 assessed as necrotic cells by Annexin V-FITC/propidium iodide staining based flow cytometry; type: functional, organism-based
Candida albicans [29] = test: Induction of reactive oxygen species generation in Candida albicans ATCC 90028 assessed as ROS level at 46.05 uM after 18 hrs by DCFDA probe based flow cytometry (reference value: 0.3%); type: functional
Candida albicans [30] = test: Cell cycle arrest in Candida albicans ATCC 90028 assessed as accumulation at G0/G1-phase by propidium iodide staining based flow cytometry; type: functional, organism-based
Candida albicans [31] = test: Induction of Candida albicans ATCC 90028 internalization in mouse RAW264.7 cells assessed as reduction in fungus-induced cell damage by measuring live and early apoptotic cells at 46.05 uM after 2 hrs acridine orange/ethidium bromide staining based confocal scanning microscopic analysis; type: functional, organism-based
Candida albicans [32] = test: Antifungal activity against Candida albicans ATCC 90028 infected in Galleria mellonella larvae assessed as induction of pathogen entrapping by haemocytes at 10 uL measured at 24 hrs interval for 144 hrs by HE staining based microscopic analysis; type: functional, organism-based
Candida albicans [33] = test: Antifungal activity against Candida albicans ATCC 90028 infected in Galleria mellonella larvae assessed as inhibition of fungus filamentation at 10 uL measured at 24 hrs interval for 144 hrs by HE staining based microscopic analysis; type: functional, organism-based

**Q.** What does the source list for `Cc1cccc(C2CCCN2CCCn2nnc(-c3ccccc3)n2)c1` (stereo not drawn)?
**A.** inhibition of growth at 0.09 µM (Candida albicans [1]): 100%; inhibition of growth at 0.18 µM (Candida albicans [2]): 99.4%; inhibition of growth at 0.36 µM (Candida albicans [3]): 99.5%; inhibition of growth at 0.72 µM (Candida albicans [4]): 99.4%; inhibition of growth at 1.44 µM (Candida albicans [5]): 99.4%; inhibition of growth at 2.88 µM (Candida albicans [6]): 99.3%; inhibition of growth at 5.76 µM (Candida albicans [7]): 99.4%; inhibition of growth at 11.51 µM (Candida albicans [8]): 99.5%; inhibition of growth at 23.02 µM (Candida albicans [9]): 99.4%; inhibition of growth at 46.05 µM (Candida albicans [10]): 99.4%; log(activity) (Candida albicans [11]): -0.1; selectivity ratio [12]: 2; survival at 18 h, 46.05 µM [13]: 100%; survival at 48 h, 46.05 µM [14]: 100%; survival at 120 h, 46.05 µM [15]: 80%; Activity [16]: 0%; Activity [17]: 0%; Activity [18]: 20%; Activity [19]: 87%; Activity [20]: 73%; Activity [21]: 80%; IC50 (Candida albicans [22]): 46.1 µM; MIC (Candida albicans [23]): 11.5 µM (≈ 4 µg/mL); MIC (Candida albicans [24]): 23 µM; inhibition at 46.05 µM (Candida albicans [25]): 98.2%; Activity (Candida albicans [26]): 97%; Selectivity Index (Candida albicans [27]): 4; IC50 (Candida albicans [28]): 46.1 µM; Activity (Candida albicans [29]): 7%; Activity (Candida albicans [30]): Active; Activity (Candida albicans [31]): Active; Activity (Candida albicans [32]): Active; inhibition (Candida albicans [33]): Active
